In PMC6934184, “Selective DNA-PKcs inhibition extends the therapeutic index of localized radiotherapy and chemotherapy” (The Journal of Clinical Investigation, 2019):

Target: T1, SPHK1 (Homo sapiens, UniProt Q9NYA1)
T1 construct: purchased Thermo Fisher Scientific (Life Technologies) SelectScreen
Test: SelectScreen Adapta
Format: biochemical
Outline: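 Percent values come from Thermo SelectScreen profiling of NU5455, combining activity and binding assays. CSF1R was run in Z'LYTE format at Km app ATP, and CAMK1 in Adapta format with ATP listed at 10.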

T1 sequence (Q9NYA1 whole entry): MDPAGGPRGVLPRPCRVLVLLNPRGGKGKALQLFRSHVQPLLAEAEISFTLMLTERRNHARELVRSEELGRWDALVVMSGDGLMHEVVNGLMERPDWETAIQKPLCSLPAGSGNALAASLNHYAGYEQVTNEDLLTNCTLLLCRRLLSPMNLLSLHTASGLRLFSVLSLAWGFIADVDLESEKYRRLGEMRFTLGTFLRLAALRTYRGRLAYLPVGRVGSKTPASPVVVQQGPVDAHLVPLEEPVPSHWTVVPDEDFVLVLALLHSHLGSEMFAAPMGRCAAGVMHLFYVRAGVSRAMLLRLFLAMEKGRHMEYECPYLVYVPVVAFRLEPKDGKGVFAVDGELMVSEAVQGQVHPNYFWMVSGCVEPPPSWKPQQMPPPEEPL

## CN(C(=O)CN1CCOCC1)c1ccc2sc3c(-c4cccc5c(=O)cc(N6CC7CCC(C6)O7)oc45)cccc3c2c1 [NU5455]
  inhibition at 1 µM: 2.7%
